These results are taken from patent US20250346585A1 (Alexion Pharmaceuticals, Inc., priority 2022, published 2025).

Chain of Human complement C1s enzyme (P09871 438-688 limits assumed): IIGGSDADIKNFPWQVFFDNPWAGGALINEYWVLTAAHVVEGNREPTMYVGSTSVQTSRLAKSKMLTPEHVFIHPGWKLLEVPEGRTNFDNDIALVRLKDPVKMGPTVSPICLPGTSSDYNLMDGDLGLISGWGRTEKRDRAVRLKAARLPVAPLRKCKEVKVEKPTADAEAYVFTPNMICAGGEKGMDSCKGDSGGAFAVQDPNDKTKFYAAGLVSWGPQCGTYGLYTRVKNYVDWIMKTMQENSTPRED
Chain of Human complement C1s enzyme (P09871 16-437 partner limits assumed): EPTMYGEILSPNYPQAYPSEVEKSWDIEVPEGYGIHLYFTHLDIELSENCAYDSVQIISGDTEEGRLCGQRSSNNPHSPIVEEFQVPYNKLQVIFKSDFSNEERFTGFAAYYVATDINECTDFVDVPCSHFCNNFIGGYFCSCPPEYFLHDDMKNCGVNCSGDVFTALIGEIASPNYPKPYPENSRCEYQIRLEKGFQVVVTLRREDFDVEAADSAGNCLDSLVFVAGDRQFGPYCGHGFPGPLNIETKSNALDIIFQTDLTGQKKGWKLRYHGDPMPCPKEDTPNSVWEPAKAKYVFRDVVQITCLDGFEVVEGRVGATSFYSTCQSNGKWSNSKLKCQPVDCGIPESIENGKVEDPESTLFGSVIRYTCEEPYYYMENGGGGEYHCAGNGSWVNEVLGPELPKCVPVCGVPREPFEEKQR

The first test concerns the target Human complement C1s enzyme (Homo sapiens (Human), UniProt P09871). As to the kind of experiment: Human C1s enzyme assay. To be noted: Human complement C1s enzyme 1.16 nM, substrate Z-L-Lys-SBzl 100 μM, assay of Example 3; read-out: IC50 (Stars). In kind it is biochemical. The method in brief:
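Purified serum-derived human C1s (1.16 nM final) preincubated 5 min at room temperature with compound in 50 mM Tris, 1 M NaCl, pH 7.5. Z-L-Lys-SBzl thioester substrate and DTNB added (100 μM each, final); A405 read every 30 s for 30 min. IC50 from nonlinear regression of reaction rates against compound concentration.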
In the case of `CC1c2ccccc2-c2ccc(C(=O)NCC(=O)N3C[C@H](S(C)(=O)=O)C[C@H]3C(=O)N[C@H](C)c3cc(C(=N)N)cs3)cc21` (stereo partly drawn) [Compound 390, (2S,4R)—N—((R)-1-(4-carbamimidoylthiophen-2-yl)ethyl)-1-((9-methyl-9H-fluorene-2-carbonyl)glycyl)-4-(methylsulfonyl)pyrrolidine-2-carboxamide], the half-inhibitory concentration (IC50) is under 100 nM.

With `C[C@@H](NC(=O)[C@@H]1CC2(CN1C(=O)CNC(=O)c1ccc3nc4ccccc4cc3c1)OCCO2)c1cc(C(=N)N)cs1` [Compound 391, (S)-7-((acridine-2-carbonyl)glycyl)-N—((R)-1-(4-carbamimidoylthiophen-2-yl)ethyl)-1,4-dioxa-7-azaspiro[4.4]nonane-8-carboxamide], the IC50 was under 100 nM. The same measure, in the same setting: for `C[C@@H](NC(=O)[C@@H]1C[C@@H](S(C)(=O)=O)CN1C(=O)CNC(=O)c1ccc2c(c1)-c1ccccc1C2OC(F)F)c1cc(C(=N)N)cs1` (stereo partly drawn) [Compound 392, (2S,4R)—N—((R)-1-(4-carbamimidoylthiophen-2-yl)ethyl)-1-((9-(difluoromethoxy)-9H-fluorene-3-carbonyl)glycyl)-4-(methylsulfonyl)pyrrolidine-2-carboxamide] the value was under 100 nM; for `COC[C@@]1(F)C[C@@H](C(=O)N[C@H](C)c2cc(C(=N)N)cs2)N(C(=O)CNC(=O)c2ccc3c(c2)-c2ccccc2S3(=O)=O)C1` [Compound 393, (2S,4R)—N—((R)-1-(4-carbamimidoylthiophen-2-yl)ethyl)-1-((5,5-dioxidodibenzo[b,d]thiophene-2-carbonyl)glycyl)-4-fluoro-4-(methoxymethyl) pyrrolidine-2-carboxamide], under 100 nM.

For the compound `COC[C@@]1(F)C[C@@H](C(=O)N[C@H](C)c2cc(C(=N)N)cs2)N(C(=O)CNC(=O)c2ccc3sc4ccccc4c3c2)C1` [Compound 394, (2S,4R)—N—((R)-1-(4-carbamimidoylthiophen-2-yl)ethyl)-1-((dibenzo[b,d]thiophene-2-carbonyl)glycyl)-4-fluoro-4-(methoxymethyl)pyrrolidine-2-carboxamide], the IC50 is under 100 nM.

Regarding `CO[C@@H]1C[C@@H](C(=O)N[C@H](CO)c2cc(C(=N)N)cs2)N(C(=O)CNC(=O)c2ccc3c(c2)-c2ccccc2C3(C)C)C1` [Compound 395, (2S,4R)—N—((R)-1-(4-carbamimidoylthiophen-2-yl)-2-hydroxyethyl)-1-((9,9-dimethyl-9H-fluorene-3-carbonyl)glycyl)-4-methoxypyrrolidine-2-carboxamide], the IC50 was under 100 nM. As to `N=C(N)c1csc([C@@H](CO)NC(=O)[C@@H]2C[C@@H](OC(F)F)CN2C(=O)CNC(=O)c2ccc3c(c2)C(F)(F)c2ccccc2-3)c1` [Compound 396, (2S,4R)—N—((R)-1-(4-carbamimidoylthiophen-2-yl)-2-hydroxyethyl)-1-((9,9-difluoro-9H-fluorene-2-carbonyl)glycyl)-4-(difluoromethoxy) pyrrolidine-2-carboxamide], the IC50 is under 100 nM. The same measure, in the same setting: the value for `COC[C@@]1(F)C[C@@H](C(=O)N[C@H](CO)c2cc(C(=N)N)cs2)N(C(=O)CNC(=O)c2ccc3c(c2)C(F)(F)c2ccccc2-3)C1` [Compound 397, (2S,4R)—N—((R)-1-(4-carbamimidoylthiophen-2-yl)-2-hydroxyethyl)-1-((9,9-difluoro-9H-fluorene-2-carbonyl)glycyl)-4-fluoro-4-(methoxymethyl)pyrrolidine-2-carboxamide] was under 100 nM.

Staying with this test, now noted: Human complement C1s enzyme 1.16 nM, substrate Z-L-Lys-SBzl; assay of Example 3; read-out: IC50 (Stars).
On to `N=C(N)c1csc([C@@H](CO)NC(=O)[C@@H]2C[C@](F)(CF)CN2C(=O)CNC(=O)c2ccc3c(c2)-c2ccccc2C3(F)F)c1` [Compound 398, (2S,4R)—N—((R)-1-(4-carbamimidoylthiophen-2-yl)-2-hydroxyethyl)-1-((9,9-difluoro-9H-fluorene-3-carbonyl)glycyl)-4-fluoro-4-(fluoromethyl)pyrrolidine-2-carboxamide], for which the IC50 was under 100 nM. Same read-out and setting: the value for `CC1(C)c2ccccc2-c2cc(C(=O)NCC(=O)N3CC4(C[C@H]3C(=O)N[C@H](CO)c3cc(C(=N)N)cs3)OCCO4)ccc21` [Compound 399, (S)—N—((R)-1-(4-carbamimidoylthiophen-2-yl)-2-hydroxyethyl)-7-((9,9-dimethyl-9H-fluorene-3-carbonyl)glycyl)-1,4-dioxa-7-azaspiro[4.4]nonane-8-carboxamide] was under 100 nM; that for `CS(=O)(=O)[C@@H]1C[C@@H](C(=O)N[C@H](CO)c2cc(C(=N)N)cs2)N(C(=O)CNC(=O)c2ccc3c(c2)-c2ccccc2C3(F)F)C1` [Compound 400, (2S,4R)—N—((R)-1-(4-carbamimidoylthiophen-2-yl)-2-hydroxyethyl)-1-((9,9-difluoro-9H-fluorene-3-carbonyl)glycyl)-4-(methylsulfonyl)pyrrolidine-2-carboxamide] was under 100 nM; that for `CC1(C)c2ccccc2-c2cc(C(=O)NCC(=O)N3C[C@@](F)(CF)C[C@H]3C(=O)N[C@H](CO)c3cc(C(=N)N)cs3)ccc21` [Compound 401, (2S,4R)—N—((R)-1-(4-carbamimidoylthiophen-2-yl)-2-hydroxyethyl)-1-((9,9-dimethyl-9H-fluorene-3-carbonyl)glycyl)-4-fluoro-4-(fluoromethyl)pyrrolidine-2-carboxamide] was under 100 nM. On the same count and under the same terms, the value for `CS(=O)(=O)[C@@H]1C[C@@H](C(=O)N[C@H](CO)c2cc(C(=N)N)cs2)N(C(=O)CNC(=O)c2cccc(-c3ccc(F)cc3)c2)C1` [Compound 402, (2S,4R)—N—((R)-1-(4-carbamimidoylthiophen-2-yl)-2-hydroxyethyl)-1-((4′-fluoro-[1,1′-biphenyl]-3-carbonyl)glycyl)-4-(methylsulfonyl)pyrrolidine-2-carboxamide] was under 100 nM. On the same count and under the same terms, for `N=C(N)c1csc([C@@H](CO)NC(=O)[C@@H]2C[C@@H](OC(F)F)CN2C(=O)CNC(=O)c2ccc3c(c2)-c2ccccc2C3(F)F)c1` [Compound 403, (2S,4R)—N—((R)-1-(4-carbamimidoylthiophen-2-yl)-2-hydroxyethyl)-1-((9,9-difluoro-9H-fluorene-3-carbonyl)glycyl)-4-(difluoromethoxy) pyrrolidine-2-carboxamide] the value was under 100 nM; for `Cc1ccc(-c2cccc(C(=O)NCC(=O)N3C[C@H](S(C)(=O)=O)C[C@H]3C(=O)N[C@H](CO)c3cc(C(=N)N)cs3)c2)cc1` [Compound 404, (2S,4R)—N—((R)-1-(4-carbamimidoylthiophen-2-yl)-2-hydroxyethyl)-1-((4′-methyl-[1,1′-biphenyl]-3-carbonyl)glycyl)-4-(methylsulfonyl) pyrrolidine-2-carboxamide], under 100 nM; for `N=C(N)c1csc([C@@H](CO)NC(=O)[C@@H]2C[C@](F)(CF)CN2C(=O)CNC(=O)c2ccc3c(c2)C(F)(F)c2ccccc2-3)c1` [Compound 405, (2S,4R)—N—((R)-1-(4-carbamimidoylthiophen-2-yl)-2-hydroxyethyl)-1-((9,9-difluoro-9H-fluorene-2-carbonyl)glycyl)-4-fluoro-4-(fluoromethyl)pyrrolidine-2-carboxamide], under 100 nM. With `CS(=O)(=O)[C@@H]1C[C@@H](C(=O)N[C@H](CO)c2cc(C(=N)N)cs2)N(C(=O)CNC(=O)c2ccc3c(c2)C(F)(F)c2ccccc2-3)C1` [Compound 406, (2S,4R)—N—((R)-1-(4-carbamimidoylthiophen-2-yl)-2-hydroxyethyl)-1-((9,9-difluoro-9H-fluorene-2-carbonyl)glycyl)-4-(methylsulfonyl)pyrrolidine-2-carboxamide], the IC50 was under 100 nM.

Take `CO[C@@H]1C[C@@H](C(=O)N[C@H](CO)c2cc(C(=N)N)cs2)N(C(=O)CNC(=O)c2ccc3c(c2)-c2ccccc2C3(F)F)C1` [Compound 407, (2S,4R)—N—((R)-1-(4-carbamimidoylthiophen-2-yl)-2-hydroxyethyl)-1-((9,9-difluoro-9H-fluorene-3-carbonyl)glycyl)-4-methoxypyrrolidine-2-carboxamide]: the IC50 was under 100 nM. As for `COC[C@@]1(F)C[C@@H](C(=O)N[C@H](CO)c2cc(C(=N)N)cs2)N(C(=O)CNC(=O)c2ccc3c(c2)-c2ccccc2C3(F)F)C1` [Compound 408, (2S,4R)—N—((R)-1-(4-carbamimidoylthiophen-2-yl)-2-hydroxyethyl)-1-((9,9-difluoro-9H-fluorene-3-carbonyl)glycyl)-4-fluoro-4-(methoxymethyl)pyrrolidine-2-carboxamide], the IC50 is under 100 nM.

For `COC[C@@]1(F)C[C@@H](C(=O)N[C@H](CO)c2cc(C(=N)N)cs2)N(C(=O)CNC(=O)c2ccc3c(c2)-c2ccccc2C3(C)C)C1` [Compound 409, (2S,4R)—N—((R)-1-(4-carbamimidoylthiophen-2-yl)-2-hydroxyethyl)-1-((9,9-dimethyl-9H-fluorene-3-carbonyl)glycyl)-4-fluoro-4-(methoxymethyl)pyrrolidine-2-carboxamide], the IC50 was under 100 nM.

In the case of `C[C@@H](NC(=O)[C@@H]1C[C@@H](c2nccs2)CN1C(=O)CNC(=O)c1ccc(Oc2ccc(F)cc2)cc1)c1cc(C(=N)N)cs1` [Compound 412, (2S,4R)—N—((R)-1-(4-carbamimidoylthiophen-2-yl)ethyl)-1-((4-(4-fluorophenoxy)benzoyl)glycyl)-4-(thiazol-2-yl)pyrrolidine-2-carboxamide], the IC50 is under 100 nM. The same measure, in the same setting: the value for `CC1(C)c2ccccc2-c2cc(C(=O)NCC(=O)N3C[C@H](OC(F)F)C[C@H]3C(=O)N[C@H](CO)c3cc(C(=N)N)cs3)ccc21` [Compound 413, (2S,4R)—N—((R)-1-(4-carbamimidoylthiophen-2-yl)-2-hydroxyethyl)-4-(difluoromethoxy)-1-((9,9-dimethyl-9H-fluorene-3-carbonyl)glycyl) pyrrolidine-2-carboxamide] was under 100 nM.
